The target of one assay is BM3 protein (Priestia megaterium, UniProt P14779). Nature of the assay: biochemical.
Assay [1] can be described thus: T1 relaxivity / T1-weighted images in the presence of melatonin. Type of assay: biochemical. The conditions noted are these: Example 3, FIGS. 8-9.
Assay [2] is described as follows: T1 relaxivity by MRI in the presence of dopamine. The conditions noted are these: Example 3, FIGS. 8-9.
From the text: To determine the extent of that the interaction between exchanging water molecules at the axial site and the heme iron atom promotes T1 relaxation in aqueous solutions, a spin echo MRI pulse sequence was used to measure the proton relaxation rate as a function of protein concentration in phosphate buffered saline solution (PBS); the slope of this relationship (T1 relaxivity, or r1) provided a standard measure of the strength of a contrast agent.
Samples (60-100 microliters) were arrayed into microtiter plates and placed in a 40-cm-bore Bruker (Billerica, Mass.) Avance 4.7 T MRI scanner, equipped with a 10 cm inner diameter birdcage resonator radiofrequency coil and 26 G/cm triple axis gradients. Unused wells of the microtiter plates were filled with phosphate buffered saline, and imaging was performed on a 2-mm slice through the sample. A T1-weighted spin echo pulse sequence was used; echo time (TE) was 10 ms, and repetition times (TR) ranged from 77 ms to 5 s. Data matrices of 512×128 points were acquired and zero-filled to 1024×512 points, where the second dimension corresponds to the phase encoding direction. Images were reconstructed and analyzed using custom routines running in Matlab. Relaxation rates and relaxivities reported here were calculated by exponential fitting to the image data.

Results on three molecules are retold here after patent US20110135575A1, “METALLOPROTEIN MRI CONTRAST AGENTS AND RELATED METHODS” (Massachusetts Institute of Technology, priority 2007, published 2011).

From the text for BM3 protein: In another example, a spectroscopic assay based on analyte-induced absorbance shifts was employed to estimate binding affinities and ligand selectivity of the mutant proteins in the above Examples. […] This method allowed both an estimation of an analyte's dissociation constant and a determination of selectivity.
Method for PC12 cells: PC12 cells were grown in suspension in F-12K medium supplemented with 15% horse serum and 2.5% fetal bovine serum (ATCC, Manassas, Va.). In preparation for DA release experiments, 50 mL cell cultures were incubated for one hour in medium supplemented with 1 mM DA and 1 mM ascorbic acid, pelleted and washed twice with Locke's buffer (154 mM NaCl, 5.6 mM KCl, 3.6 mM NaHCO3, 2.3 mM CaCl2, 5.6 mM D-glucose, and 5 mM HEPES, pH 7.4). Washed PC12 cell pellets were resuspended in 200 microliters of Locke's buffer, with or without 32 micromolar BM3h-B7 sensor and containing either 5.6 or 59.6 mM K^+ (the low K^+ condition was osmotically balanced with Na^+). After 30-60 minutes incubation at room temperature, cells were pelleted and the supernatant was imaged in an MRI scanner as described above.

On to `NCCc1ccc(O)c(O)c1` [dopamine], for which, in the assay with PC12 cells (K+-stimulated PC12 cells), the “DA concentration by ELISA, stimulated cells” value is 54 ± 9 µM. The “DA concentration by ELISA, control cells” value in the assay with PC12 cells (Na+ control PC12 cells) turned out to be 13 ± 2 µM. The molecule also displayed a Kd at BM3 protein of roughly 1000 µM.
The molecule `NCCc1c[nH]c2ccc(O)cc12` [serotonin] yielded a Kd at BM3 protein of roughly 1000 µM.

B1: wild type BM3: wild type cytochrome P450-BM3 from Bacillus megaterium, provided by Frances Arnold's laboratory (protein, UniProt P14779 1-1049, looked up)
Bifunctional cytochrome …: MTIKEMPQPKTFGELKNLPLLNTDKPVQALMKIADELGEIFKFEAPGRVTRYLSSQRLIKEACDESRFDKNLSQALKFVRDFAGDGLFTSWTHEKNWKKAHNILLPSFSQQAMKGYHAMMVDIAVQLVQKWERLNADEHIEVPEDMTRLTLDTIGLCGFNYRFNSFYRDQPHPFITSMVRALDEAMNKLQRANPDDPAYDENKRQFQEDIKVMNDLVDKIIADRKASGEQSDDLLTHMLNGKDPETGEPLDDENIRYQIITFLIAGHETTSGLLSFALYFLVKNPHVLQKAAEEAARVLVDPVPSYKQVKQLKYVGMVLNEALRLWPTAPAFSLYAKEDTVLGGEYPLEKGDELMVLIPQLHRDKTIWGDDVEEFRPERFENPSAIPQHAFKPFGNGQRACIGQQFALHEATLVLGMMLKHFDFEDHTNYELDIKETLTLKPEGFVVKAKSKKIPLGGIPSPSTEQSAKKVRKKAENAHNTPLLVLYGSNMGTAEGTARDLADIAMSKGFAPQVATLDSHAGNLPREGAVLIVTASYNGHPPDNAKQFVDWLDQASADEVKGVRYSVFGCGDKNWATTYQKVPAFIDETLAAKGAENIADRGEADASDDFEGTYEEWREHMWSDVAAYFNLDIENSEDNKSTLSLQFVDSAADMPLAKMHGAFSTNVVASKELQQPGSARSTRHLEIELPKEASYQEGDHLGVIPRNYEGIVNRVTARFGLDASQQIRLEAEEEKLAHLPLAKTVSVEELLQYVELQDPVTRTQLRAMAAKTVCPPHKVELEALLEKQAYKEQVLAKRLTMLELLEKYPACEMKFSEFIALLPSIRPRYYSISSSPRVDEKQASITVSVVSGEAWSGYGEYKGIASNYLAELQEGDTITCFISTPQSEFTLPKDPETPLIMVGPGTGVAPFRGFVQARKQLKEQGQSLGEAHLYFGCRSPHEDYLYQEELENAQSEGIITLHTAFSRMPNQPKTYVQHVMEQDGKKLIELLDQGAHFYICGDGSQMAPAVEATLMKSYADVHQVSEADARLWLQQLEEKGRYAKDVWAG
B1: in assay [1], the “T1 relaxivity response to melatonin” value is recorded as “minimal response”. Moreover, in assay [2], the “relative T1 relaxivity response to DA versus 5-HT” value is reported as “greater response to DA”.
